# Tests used:
# [1] = target: T1, RPE65 (Bos taurus, UniProt Q28175); assay: Fluorescence binding assay of retinoids and analogs to purified RPE65; set-up: species or system bovine; settings: antagonist of RPE65; read-out: KD
# T1 construct: Frozen bovine eyecups devoid of retinas were purchased from W. L. Lawson Co; tissue W. L. Lawson Co; host or cells: bovine eyecups (retinal pigment epithelium)
# Procedure: Purification of mRPE65, sRPE65 and rHRPE65: Purification was performed as described before (Ma et al., 2001). The purities of these proteins were verified by silver staining or Coomassie staining and Western blot (1:4000 primary antibody-1 h at room temperature and 1:4000 secondary antibody-0.5 h at room temperature).
# (§1) Fluorescence binding assays: RPE65 in PBS, 1% CHAPS, pH 7.4 was used in the fluorometric titration studies. Protein concentrations were measured by a modified Lowry method (Lowry et al., 1951). All titrations were performed at 25° C. The samples in PBS buffer were excited at 280 nm and the fluorescence was scanned from 300 to 500 nm. Fluorescence measurements, using 450 μL quartz cuvettes with a 0.5 cm path length, were made at 25° C. on a Jobin Yvon Instruments, Fluoromax 2 employing the right-angle detection method.
# (§2) The fluorescence of the protein solution was measured after equilibrating it at 25° C. for 10 min. The sample was then titrated with a solution of retinoid dissolved in dimethyl sulfoxide. In each titration, to a 250 μL solution of the protein an equal amount of retinoid, typically 0.2 μL. was added and thoroughly mixed before allowing it to equilibrate for 10 min prior to recording the fluorescence intensity. […] The binding constant (KD) was calculated from the fluorescence intensity by using the following equation (Gollapalli et al., 2003).
# where P0=Total protein concentration,
# n=number of independent binding sites, R0=Total retixioid concentration at each addition, KD=dissociation constant, Fmax=Fluorescence intensity at saturation, and F0=Initial fluorescence intensity.
# [2] = tested on: A2E formation; assay: In vitro A2E formation in the presence of aromatic amine
# Procedure: 100 mg (355 μmoles) of all-trans-retinal was dissolved in 3 mL followed by the addition of 9.5 μL of glacial acetic acid 9.5 μL of ethanolamine (155 μmoles). This solution was aliquoted into 300 μL fractions. 3-aminoethylbenzoate (15.5 μmoles) was added to the samples at 0, 2, 3.75, 14, 16.25, 18.0833 19.917 23.75 and 48 hrs. […] The solutions were shaken at room temperature for 48 hrs. The solutions were then kept at −80° C. and 15 μL was diluted to 250 μL (methanol). The solutions (15 μL) were then analyzed on a reverse phase (C18-5 μm-4.6 mm×150 mm) column on a linear gradient 85%-96% methanol/water and UV detector at 430 nm to determine the amount of A2E formation. The percent A2E formation was compared to A2E formation at 48 h in the absence of aromatic amine.
# [3] = target: mouse RPE65; assay: Constants of affinity (Kds) for mouse RPE65; type: binding; settings: read-out: Kd (constant of affinity) for mouse RPE65
# Procedure: as §1, §2
# The constants of affinity (Kds) of several compounds for mouse RPE65 were determined. […] Thus, the potency of binding is a function of the ester chain length, i.e., the longer the chain length, the stronger the affinity for RPE65 is and the stronger the antagonist is.
# [4] = tested on: A2E accumulation; assay: In vivo A2E accumulation in abcr knockout mice; settings: for A2E accumulation / iso-A2E accumulation / total (A2E + iso-A2E) accumulation: 50 mg/kg once or twice a week, 2 to 2½ months; for reduction of A2E accumulation / reduction of iso-A2E accumulation / reduction of total A2E accumulation: versus no drug
# Procedure: Effects on accumulation of A2E in abcr knockout mice by farnesyl decyl ketone and N-palmityl farnesimide were investigated. Mice were injected with 50 mg/kg drug in 25 microliters of DMSO or with only DMSO for the control group once or twice a week. After 2 to 2½ months, the mice were sacrificed, and A2E and iso-A2E were harvested and quantitated from 4 eyes for each drug or control.
# T1 sequence (Q28175 whole entry): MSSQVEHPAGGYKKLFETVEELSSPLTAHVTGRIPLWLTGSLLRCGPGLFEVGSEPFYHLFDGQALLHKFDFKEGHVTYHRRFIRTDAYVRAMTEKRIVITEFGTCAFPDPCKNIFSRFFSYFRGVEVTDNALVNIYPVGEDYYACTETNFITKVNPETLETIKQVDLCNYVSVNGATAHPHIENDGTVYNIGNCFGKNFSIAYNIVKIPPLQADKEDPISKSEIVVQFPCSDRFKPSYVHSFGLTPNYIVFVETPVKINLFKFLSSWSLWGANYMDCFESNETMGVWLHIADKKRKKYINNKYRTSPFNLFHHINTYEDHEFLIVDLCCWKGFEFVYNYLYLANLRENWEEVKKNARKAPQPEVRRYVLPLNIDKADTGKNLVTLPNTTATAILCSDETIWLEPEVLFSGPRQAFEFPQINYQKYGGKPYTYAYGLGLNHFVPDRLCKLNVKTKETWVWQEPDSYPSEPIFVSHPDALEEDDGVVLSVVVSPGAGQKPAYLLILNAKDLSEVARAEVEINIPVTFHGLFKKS
Kd [1] [nM],Molecule,further results
24,COC/C=C(C)/C=C/C=C(C)/C=C/C1=C(C)CCCC1(C)C [methyl retinyl ether],–
3790,CC(=O)/C=C(C)/C=C/C=C(C)/C=C/C1=C(C)CCCC1(C)C [methyl retinyl ketone],–
170,CCCCCCCCCCCCCCCCC(O)/C=C(C)/C=C/C=C(C)/C=C/C1=C(C)CCCC1(C)C (stereo not shown) [palmityl retinyl alcohol],–
25,CCCCCCCCCCCCCCCCOC/C=C(C)/C=C/C=C(C)/C=C/C1=C(C)CCCC1(C)C [palmityl retinyl ether],Kd [3]: 21 nM
64,CCCCCCCCCCCCCCCCC(=O)/C=C(C)/C=C/C=C(C)/C=C/C1=C(C)CCCC1(C)C [palmityl retinyl ketone],–
486,COCCOCCOC/C=C(C)/C=C/C=C(C)/C=C/C1=C(C)CCCC1(C)C [retinyl [2-(2′-methoxy)ethoxy]ethyl ether],–
1300,CC(=O)OC/C=C(C)/C=C/C=C(C)/C=C/C1=C(C)CCCC1(C)C [retinyl acetate],Kd [3]: 1300 nM
153,CCCCCCCCCCCCCCCC(=O)OC/C=C(C)/C=C/C1=C(C)CCCC1(C)C [β-ionoacetyl palmitate],–
156,CCCCCCCCCCCCCCCCOC/C=C(C)/C=C/C1=C(C)CCCC1(C)C [β-ionoacetyl palmityl ether],–
235,retinyl hexanoate,Kd [3]: 235 nM

# Continued, molecule first:
Molecule,Kd [1] [nM],further results
CCCCCCCCCCCCCCCC(=O)CC/C=C(\C)CC/C=C(\C)CCC=C(C)C,96,–
CCCCCCCCCC(=O)CC/C=C(\C)CC/C=C(\C)CCC=C(C)C,56,–
CCCCCCCCCCCCCCCC(=O)NC/C=C(\C)CC/C=C(\C)CCC=C(C)C,56,–
CCCCCCCCCC(=O)CC/C=C(C)/C=C/C=C(C)/C=C/C1=C(C)CCCC1(C)C,173,–
CC(=O)CC/C=C(C)/C=C/C=C(C)/C=C/C1=C(C)CCCC1(C)C,3790,–
"CCOC(=O)c1cccc(N)c1 [3-aminoethylbenzoate, ethyl 3-aminobenzoate]",–,"A2E formation % formation (48 Hrs = 100) ([2]; aromatic amine added at 0 hrs, read at 48 hrs): 3.98%; A2E formation % formation (48 Hrs = 100) ([2]; aromatic amine added at 2 hrs, read at 48 hrs): 8.67%; A2E formation % formation (48 Hrs = 100) ([2]; aromatic amine added at 3.75 hrs, read at 48 hrs): 7.71%; A2E formation % formation (48 Hrs = 100) ([2]; aromatic amine added at 14 hrs, read at 48 hrs): 19.73%; A2E formation % formation (48 Hrs = 100) ([2]; aromatic amine added at 16.25 hrs, read at 48 hrs): 19.25%; A2E formation % formation (48 Hrs = 100) ([2]; aromatic amine added at 18.0833 hrs, read at 48 hrs): 23.70%; A2E formation % formation (48 Hrs = 100) ([2]; aromatic amine added at 19.91667 hrs, read at 48 hrs): 27.65%; A2E formation % formation (48 Hrs = 100) ([2]; aromatic amine added at 23.75 hrs, read at 48 hrs): 22.44%; A2E formation % formation (48 Hrs = 100) ([2]; aromatic amine added at 48 hrs, reference = 100): 100.00%"
CCCCCCCCCCCCCCCC(=O)NC/C=C(C)/C=C/C=C(C)/C=C/C1=C(C)CCCC1(C)C [4e],–,Kd [3]: 40 nM
CCCCCCCCCCCCCCCC(=O)CC/C=C(C)/C=C/C=C(C)/C=C/C1=C(C)CCCC1(C)C [4f],64,Kd [3]: 64 nM
"CC1=C(/C=C/C(C)=C/C=C/C(C)=C/C(=O)N(C)C)C(C)(C)CCC1 [N,N-dimethyl retinimide]",3580,–
CCCCCCCCCCCCCCCCNC(=O)C/C=C(\C)CC/C=C(\C)CCC=C(C)C [N-palmityl farnesimide],–,A2E accumulation [4]: 5.38 pmoles/eye; iso-A2E accumulation [4]: 1.70 pmoles/eye; total (A2E + iso-A2E) accumulation [4]: 7.09 pmoles/eye; reduction of A2E accumulation [4]: over 50%; reduction of iso-A2E accumulation [4]: about 33%; reduction of total A2E accumulation [4]: about 47%
CCCCCCCCCCCCCCCCNC(=O)/C=C(C)/C=C/C=C(C)/C=C/C1=C(C)CCCC1(C)C [N-palmityl retinimide],40,–
CC1=C(/C=C/C(C)=C/C=C/C(C)=C/C(=O)NC(C)(C)C)C(C)(C)CCC1 [N-tert-butyl retinimide],4320,–
CCCCCCCCCCC(=O)CC=C(C)CCC=C(C)CCC=C(C)C [farnesyl decyl ketone],–,A2E accumulation [4]: 2.00 pmoles/eye; iso-A2E accumulation [4]: 0.66 pmoles/eye; total (A2E + iso-A2E) accumulation [4]: 2.66 pmoles/eye; reduction of A2E accumulation [4]: over 80%; reduction of iso-A2E accumulation [4]: about 74%; reduction of total A2E accumulation [4]: about 80%
CCCCCCCCCCCCCCCC(=O)OC/C=C(\C)CC/C=C(\C)CCC=C(C)C [farnesyl palmitate],63,–
CCCCCCCCCCCCCCCCOC/C=C(\C)CC/C=C(\C)CCC=C(C)C [farnesyl palmityl ether],60,–
CCCCCCCCCCCCCCCC(=O)OC/C=C(\C)CCC=C(C)C [geranyl palmitate],301,–
CCCCCCCCCCCCCCCCOC/C=C(\C)CCC=C(C)C [geranyl palmityl ether],416,–
CCCCCCCCCCCCCCCC(=O)OC/C=C(\C)CC/C=C(\C)CC/C=C(\C)CCC=C(C)C [geranylgeranyl palmitate],213,–
CCCCCCCCCCCCCCCCOC/C=C(\C)CC/C=C(\C)CC/C=C(\C)CCC=C(C)C [geranylgeranyl palmityl ether],195,–
CCCCCCOC/C=C(C)/C=C/C=C(C)/C=C/C1=C(C)CCCC1(C)C [hexyl retinyl ether],151,–

# Reference: patent publication US20080176952A1, “Management of Ophthalmologic Disorders, Including Macular Degeneration” (priority 2004, published 2008)
